According to patent US4017607A:
Values after ≈ are worked out from the molar mass of the structure shown. Read-outs that look alike come from different tables or passages of the source.

How the values were obtained:
[1] = system: gram-negative and gram-positive bacteria; assay: Antibacterial activity (in words); type: cell-based
[2] = system: Staphylococcus aureus Terajima; assay: Minimum inhibitory concentration, serial dilution method; type: cell-based; conditions: Staphylococcus aureus, 24 h, read-out: Minimum Inhibitory Concentration
[3] = system: Corynebacterium diphtheriae Type gravis; assay: as above; type: cell-based; conditions: Corynebacterium diphtheriae Type gravis; 24 hours, 37° C; read-out: Minimum Inhibitory Concentration
[4] = system: Streptococcus hemolyticus Cook; assay: as above; type: cell-based; conditions: Streptococcus pyogenes; Streptococcus hemolyticus Cook; 24 hours, 37° C; read-out: Minimum Inhibitory Concentration
[5] = system: Bacillus anthracis No. 119; assay: microbe, parasite or virus in culture; type: cell-based; conditions: NO.119, 24 h, read-out: Minimum Inhibitory Concentration
[6] = system: Diplococcus pneumoniae Type III; assay: Minimum inhibitory concentration, serial dilution method; type: cell-based; conditions: Streptococcus pneumoniae; Diplococcus pneumoniae Type III; 24 hours, 37° C; read-out: Minimum Inhibitory Concentration
[7] = system: Bacillus subtilis ATCC 6633; assay: as above; type: cell-based; conditions: read-out: Minimum Inhibitory Concentration
[8] = system: Diplococcus pneumoniae Type I; assay: as above; type: cell-based; conditions: Streptococcus pneumoniae; Diplococcus pneumoniae Type I; 24 hours, 37° C; read-out: Minimum Inhibitory Concentration
[9] = system: Bacillus subtilis PCI 219; assay: as above; type: cell-based; conditions: PCI219; Bacillus subtilis PCI 219; 24 hours, 37° C; read-out: Minimum Inhibitory Concentration
[10] = system: Streptococcus hemolyticus D-90; assay: as above; type: cell-based; conditions: Streptococcus pyogenes, D90, 24 h, read-out: Minimum Inhibitory Concentration
[11] = system: Corynebacterium diphtheriae Type intermedius; assay: as above; type: cell-based; conditions: Corynebacterium diphtheriae Type intermedius; 24 hours, 37° C; read-out: Minimum Inhibitory Concentration
[12] = system: Staphylococcus aureus 209P; assay: Minimum inhibitory concentration, serial dilution method, Brain Heart Infusion broth; type: cell-based; conditions: Staphylococcus aureus, 209P, 24 h, read-out: Minimum Inhibitory Concentration
[13] = system: Streptococcus faecalis ATCC 8043; assay: Minimum inhibitory concentration, serial dilution method; type: cell-based; conditions: Enterococcus faecalis, read-out: Minimum Inhibitory Concentration
[14] = system: Staphylococcus aureus 209P; conditions: 7th day, 10 mice per group
[15] = system: Sarcina lutea; assay: Minimum inhibitory concentration, serial dilution method; type: cell-based; conditions: Micrococcus luteus; Sarcina lutea; 24 hours, 37° C; read-out: Minimum Inhibitory Concentration
[16] = system: Staphylococcus aureus Smith; assay: as above; type: cell-based; conditions: Staphylococcus aureus Smith; 24 hours, 37° C; read-out: Minimum Inhibitory Concentration
[17] = system: Staphylococcus albus 1200A; assay: as above; type: cell-based; conditions: read-out: Minimum Inhibitory Concentration
[18] = system: Streptococcus pyogenes D-58; assay: as above; type: cell-based; conditions: D58; Streptococcus pyogenes D-58; 24 hours, 37° C; read-out: Minimum Inhibitory Concentration

Compound | antibacterial activity [1] | MIC [2] [µg/mL] | MIC [3] [µg/mL] | MIC [4] [µg/mL] | MIC [5] [µg/mL] | MIC [6] [µg/mL] | MIC [8] [µg/mL] | MIC [9] [µg/mL] | MIC [10] [µg/mL] | MIC [11] [µg/mL] | MIC [12] [µg/mL] | Rate of surviving mice in each group of mice ([14]; 100 mg/kg oral) | Rate of surviving mice in each group of mice ([14]; 200 mg/kg oral) | MIC [15] [µg/mL] | MIC [16] [µg/mL] | MIC [18] [µg/mL] | further results
CCC(=O)OC1CC(=O)OC(C)CC=CC=CC(OC(C)=O)C(C)CC(C=COC(C)=O)C(OC2OC(C)C(OC3CC(C)(OC(=O)CC)C(OC(C)=O)C(C)O3)C(N(C)C)C2OC(C)=O)C1OC (stereo not shown) | substantially no antibacterial activity |  |  |  |  |  |  |  |  |  |  |  |  |  |  |  | 
CCC(=O)OC1CC(=O)OC(C)CC=CC=CC(OC(C)=O)C(C)CC(C=COC(C)=O)C(OC2OC(C)C(OC3CC(C)(OC(=O)CC)C(OC(C)=O)C(C)O3)C(N(C)C)C2O)C1OC (stereo not shown) | no antibacterial activity |  |  |  |  |  |  |  |  |  |  |  |  |  |  |  | 
9,2' -di-acetyl-18,3" -di-propionyl SF-837 substance | observed |  |  |  |  |  |  |  |  |  |  |  |  |  |  |  | 
CCC(=O)OC1CC(=O)OC(C)CC=CC=CC(OC(C)=O)C(C)CC(CC=O)C(OC2OC(C)C(OC3CC(C)(O)C(OC(=O)CC)C(C)O3)C(N(C)C)C2OC(C)=O)C1OC (stereo not shown) [9,2'-di-acetyl SF-837 substance, reference compound] |  | 1.56 (≈ 1.74 µM) | 0.39 (≈ 0.434 µM) | 0.19 (≈ 0.212 µM) | 1.56 (≈ 1.74 µM) | 0.09 (≈ 0.1 µM) | 0.09 (≈ 0.1 µM) | 0.78 (≈ 0.869 µM) | 1.56 (≈ 1.74 µM) | 0.19 (≈ 0.212 µM) | 1.56 (≈ 1.74 µM) | 0/10 | 6/10 | 0.19 (≈ 0.212 µM) | 0.39 (≈ 0.434 µM) | 0.19 (≈ 0.212 µM) | MIC ([7]; ATCC6633, Bacillus subtilis ATCC 6633, 24 hours, 37° C): 3.12 µg/mL (≈ 3.47 µM); MIC ([13]; ATCC8043, Streptococcus faecalis ATCC 8043, 24 hours, 37° C): 3.12 µg/mL (≈ 3.47 µM); MIC ([17]; Staphylococcus, 1200A, 24 h): 1.56 µg/mL (≈ 1.74 µM)
CCC(=O)OC=CC1CC(C)C(OC(C)=O)C=CC=CCC(C)OC(=O)CC(OC(=O)CC)C(OC)C1OC1OC(C)C(OC2CC(C)(OC(=O)CC)C(OC(=O)CC)C(C)O2)C(N(C)C)C1O (stereo not shown) [9-acetyl-18,3"-di-propionyl SF-837 substance] | Not observed |  |  |  |  |  |  |  |  |  |  |  |  |  |  |  | 
CCC(=O)OC1CC(=O)OC(C)CC=CC=CC(OC(C)=O)C(C)CC(CC=O)C(OC2OC(C)C(OC3CC(C)(O)C(OC(=O)CC)C(C)O3)C(N(C)C)C2O)C1OC (stereo not shown) [9-mono-acetyl SF-837 substance, reference compound] |  | 1.56 (≈ 1.82 µM) | 0.19 (≈ 0.222 µM) | 0.39 (≈ 0.456 µM) | 1.56 (≈ 1.82 µM) | 0.04 (≈ 0.0467 µM) | 0.04 (≈ 0.0467 µM) | 0.78 (≈ 0.911 µM) | 1.56 (≈ 1.82 µM) | 0.19 (≈ 0.222 µM) | 1.56 (≈ 1.82 µM) | 5/10 | 8/10 | 0.09 (≈ 0.105 µM) | 0.78 (≈ 0.911 µM) | 0.39 (≈ 0.456 µM) | MIC ([7]; Bacillus subtilis, ATCC6633, 24 h): 1.56 µg/mL (≈ 1.82 µM); MIC ([13]; ATCC8043, 24 h): 1.56 µg/mL (≈ 1.82 µM); MIC ([17]; Staphylococcus albus 1200A, 24 hours, 37° C): 0.78 µg/mL (≈ 0.911 µM)
